How the values were obtained:
Assay in all cases: B2 Post-Emergence Efficacy - Test 2
Assay type in all cases: in vivo
[1] = tested on: Abutilon theophrasti (ABUTH); conditions: 15 days after application, 0-100 scale
Summary of the method: (§1)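 A 0–100 damage rating taken 15 days after application. Plants: 12 days old at spraying, glasshouse-grown (16 h light, 65% humidity, day/night 24/18 or 20/16 °C), watered twice daily. Spray: aqueous IF50 formulation, 0.2% v/v Genapol X080.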

[2] = tested on: Amaranthus retroflexus (AMARE); conditions: 15 days after application, 0-100 scale
Summary of the method: as §1

Avena fatua (AVEFA) = conditions: 15 days after application, 0-100 scale
Summary of the method: as §1

Beta vulgaris (BEAVA) = conditions: 15 days after application, 0-100 scale
Summary of the method: as §1

[3] = tested on: Brachiaria plantaginea (BRAPL); conditions: 15 days after application, 0=no damage, 100=total kill
Summary of the method: as §1

Brassica napus (BRSNN) = conditions: 15 days after application, 0-100 scale
Summary of the method: as §1

Bromus tectorum (BROTE) = conditions: 15 days after application, 0-100 scale
Summary of the method: as §1

[4] = tested on: Digitaria sanguinalis (DIGSA); conditions: 15 days after application, 0=no damage, 100=total kill
Summary of the method: as §1

Glycine max (GLXMA) = conditions: 15 days after application; for Herbicidal activity GLXMA: 0-100 scale; for Herbicidal activity on a 0-100 scale, GLXMA: 0=no damage, 100=total kill
Summary of the method: as §1

[5] = tested on: Ipomoea hederacea (IPOHE); conditions: 15 days after application, 0-100 scale
Summary of the method: as §1

Kochia scoparia (KSHSC) = conditions: 15 days after application, 0-100 scale
Summary of the method: as §1

Lolium perenne (LOLPE) = conditions: 15 days after application, 0-100 scale
Summary of the method: as §1

Poa annua (POAAN) = conditions: 15 days after application, 0-100 scale
Summary of the method: as §1

Sida spinosa (SIDSP) = conditions: 15 days after application, 0-100 scale
Summary of the method: as §1

Sinapis arvensis (SINAR) = conditions: 15 days after application, 0-100 scale
Summary of the method: as §1

Sorghum bicolour (SORVU) = conditions: 15 days after application, 0=no damage, 100=total kill
Summary of the method: as §1

[6] = tested on: Triticum aestivum (TRZAW); conditions: 15 days after application, 0-100 scale
Summary of the method: as §1

[7] = tested on: Xanthium strumarium (XANST); conditions: 15 days after application, 0-100 scale
Summary of the method: as §1

Cc1nn(C)c(=O)c(-c2c(F)ccc(Cl)c2CCc2ccc(F)cc2)c1O [Compound 1.048, 4-[3-chloro-6-fluoro-2-[2-(4-fluorophenyl)ethyl]phenyl]-5-hydroxy-2,6-dimethyl-pyridazin-3-one]
Herbicidal activity ABUTH ([1]; 15 g/Ha): 60
Herbicidal activity ABUTH ([1]; 30 g/Ha): 80
Herbicidal activity ABUTH ([1]; 60 g/Ha): 90
Herbicidal activity ABUTH ([1]; 125 g/Ha): 90
Herbicidal activity ABUTH ([1]; 250 g/Ha): 90
Herbicidal activity ABUTH ([1]; 500 g/Ha): 100
Herbicidal activity AMARE ([2]; 15 g/Ha): 60
Herbicidal activity AMARE ([2]; 30 g/Ha): 80
Herbicidal activity AMARE ([2]; 60 g/Ha): 90
Herbicidal activity AMARE ([2]; 125 g/Ha): 90
Herbicidal activity AMARE ([2]; 250 g/Ha): 100
Herbicidal activity AMARE ([2]; 500 g/Ha): 100
Herbicidal activity AVEFA (Avena fatua (AVEFA); 15 g/Ha): 10
Herbicidal activity AVEFA (Avena fatua (AVEFA); 30 g/Ha): 30
Herbicidal activity AVEFA (Avena fatua (AVEFA); 60 g/Ha): 60
Herbicidal activity AVEFA (Avena fatua (AVEFA); 125 g/Ha): 80
Herbicidal activity AVEFA (Avena fatua (AVEFA); 250 g/Ha): 90
Herbicidal activity AVEFA (Avena fatua (AVEFA); 500 g/Ha): 90
Herbicidal activity BEAVA (Beta vulgaris (BEAVA); 15 g/Ha): 70
Herbicidal activity BEAVA (Beta vulgaris (BEAVA); 30 g/Ha): 80
Herbicidal activity BEAVA (Beta vulgaris (BEAVA); 60 g/Ha): 80
Herbicidal activity BEAVA (Beta vulgaris (BEAVA); 125 g/Ha): 90
Herbicidal activity BEAVA (Beta vulgaris (BEAVA); 250 g/Ha): 90
Herbicidal activity BEAVA (Beta vulgaris (BEAVA); 500 g/Ha): 90
Herbicidal activity on a 0-100 scale, BRAPL ([3]; 15 g/Ha): 20
Herbicidal activity on a 0-100 scale, BRAPL ([3]; 30 g/Ha): 60
Herbicidal activity on a 0-100 scale, BRAPL ([3]; 60 g/Ha): 80
Herbicidal activity on a 0-100 scale, BRAPL ([3]; 125 g/Ha): 80
Herbicidal activity on a 0-100 scale, BRAPL ([3]; 250 g/Ha): 90
Herbicidal activity on a 0-100 scale, BRAPL ([3]; 500 g/Ha): 100
Herbicidal activity BRSNN (Brassica napus (BRSNN); 15 g/Ha): 90
Herbicidal activity BRSNN (Brassica napus (BRSNN); 30 g/Ha): 90
Herbicidal activity BRSNN (Brassica napus (BRSNN); 60 g/Ha): 90
Herbicidal activity BRSNN (Brassica napus (BRSNN); 125 g/Ha): 90
Herbicidal activity BRSNN (Brassica napus (BRSNN); 250 g/Ha): 90
Herbicidal activity BRSNN (Brassica napus (BRSNN); 500 g/Ha): 90
Herbicidal activity BROTE (Bromus tectorum (BROTE); 15 g/Ha): 0
Herbicidal activity BROTE (Bromus tectorum (BROTE); 30 g/Ha): 10
Herbicidal activity BROTE (Bromus tectorum (BROTE); 60 g/Ha): 20
Herbicidal activity BROTE (Bromus tectorum (BROTE); 125 g/Ha): 50
Herbicidal activity BROTE (Bromus tectorum (BROTE); 250 g/Ha): 60
Herbicidal activity BROTE (Bromus tectorum (BROTE); 500 g/Ha): 70
Herbicidal activity on a 0-100 scale, DIGSA ([4]; 15 g/Ha): 0
Herbicidal activity on a 0-100 scale, DIGSA ([4]; 30 g/Ha): 10
Herbicidal activity on a 0-100 scale, DIGSA ([4]; 60 g/Ha): 20
Herbicidal activity on a 0-100 scale, DIGSA ([4]; 125 g/Ha): 20
Herbicidal activity on a 0-100 scale, DIGSA ([4]; 250 g/Ha): 50
Herbicidal activity on a 0-100 scale, DIGSA ([4]; 500 g/Ha): 70
Herbicidal activity GLXMA (Glycine max (GLXMA); 15 g/Ha): 70
Herbicidal activity on a 0-100 scale, GLXMA (Glycine max (GLXMA); 15 g/Ha): 70
Herbicidal activity GLXMA (Glycine max (GLXMA); 30 g/Ha): 80
Herbicidal activity on a 0-100 scale, GLXMA (Glycine max (GLXMA); 30 g/Ha): 80
Herbicidal activity GLXMA (Glycine max (GLXMA); 60 g/Ha): 90
Herbicidal activity on a 0-100 scale, GLXMA (Glycine max (GLXMA); 60 g/Ha): 90
Herbicidal activity GLXMA (Glycine max (GLXMA); 125 g/Ha): 90
Herbicidal activity on a 0-100 scale, GLXMA (Glycine max (GLXMA); 125 g/Ha): 90
Herbicidal activity GLXMA (Glycine max (GLXMA); 250 g/Ha): 90
Herbicidal activity on a 0-100 scale, GLXMA (Glycine max (GLXMA); 250 g/Ha): 90
Herbicidal activity GLXMA (Glycine max (GLXMA); 500 g/Ha): 100
Herbicidal activity on a 0-100 scale, GLXMA (Glycine max (GLXMA); 500 g/Ha): 100
Herbicidal activity IPOHE ([5]; 15 g/Ha): 70
Herbicidal activity IPOHE ([5]; 30 g/Ha): 80
Herbicidal activity IPOHE ([5]; 60 g/Ha): 100
Herbicidal activity IPOHE ([5]; 125 g/Ha): 100
Herbicidal activity IPOHE ([5]; 250 g/Ha): 100
Herbicidal activity IPOHE ([5]; 500 g/Ha): 100
Herbicidal activity KCHSC (Kochia scoparia (KSHSC); 15 g/Ha): 0
Herbicidal activity KCHSC (Kochia scoparia (KSHSC); 30 g/Ha): 0
Herbicidal activity KCHSC (Kochia scoparia (KSHSC); 60 g/Ha): 10
Herbicidal activity KCHSC (Kochia scoparia (KSHSC); 125 g/Ha): 20
Herbicidal activity KCHSC (Kochia scoparia (KSHSC); 250 g/Ha): 50
Herbicidal activity KCHSC (Kochia scoparia (KSHSC); 500 g/Ha): 80
Herbicidal activity LOLPE (Lolium perenne (LOLPE); 15 g/Ha): 20
Herbicidal activity LOLPE (Lolium perenne (LOLPE); 30 g/Ha): 40
Herbicidal activity LOLPE (Lolium perenne (LOLPE); 60 g/Ha): 90
Herbicidal activity LOLPE (Lolium perenne (LOLPE); 125 g/Ha): 90
Herbicidal activity LOLPE (Lolium perenne (LOLPE); 250 g/Ha): 90
Herbicidal activity LOLPE (Lolium perenne (LOLPE); 500 g/Ha): 90
Herbicidal activity POAAN (Poa annua (POAAN); 15 g/Ha): 30
Herbicidal activity POAAN (Poa annua (POAAN); 30 g/Ha): 30
Herbicidal activity POAAN (Poa annua (POAAN); 60 g/Ha): 80
Herbicidal activity POAAN (Poa annua (POAAN); 125 g/Ha): 80
Herbicidal activity POAAN (Poa annua (POAAN); 250 g/Ha): 90
Herbicidal activity POAAN (Poa annua (POAAN); 500 g/Ha): 90
Herbicidal activity SIDSP (Sida spinosa (SIDSP); 15 g/Ha): 80
Herbicidal activity SIDSP (Sida spinosa (SIDSP); 30 g/Ha): 80
Herbicidal activity SIDSP (Sida spinosa (SIDSP); 60 g/Ha): 80
Herbicidal activity SIDSP (Sida spinosa (SIDSP); 125 g/Ha): 90
Herbicidal activity SIDSP (Sida spinosa (SIDSP); 250 g/Ha): 90
Herbicidal activity SIDSP (Sida spinosa (SIDSP); 500 g/Ha): 90
Herbicidal activity SINAR (Sinapis arvensis (SINAR); 15 g/Ha): 40
Herbicidal activity SINAR (Sinapis arvensis (SINAR); 30 g/Ha): 80
Herbicidal activity SINAR (Sinapis arvensis (SINAR); 60 g/Ha): 80
Herbicidal activity SINAR (Sinapis arvensis (SINAR); 125 g/Ha): 90
Herbicidal activity SINAR (Sinapis arvensis (SINAR); 250 g/Ha): 90
Herbicidal activity SINAR (Sinapis arvensis (SINAR); 500 g/Ha): 90
Herbicidal activity on a 0-100 scale, SORVU (Sorghum bicolour (SORVU); 15 g/Ha): 0
Herbicidal activity on a 0-100 scale, SORVU (Sorghum bicolour (SORVU); 30 g/Ha): 30
Herbicidal activity on a 0-100 scale, SORVU (Sorghum bicolour (SORVU); 60 g/Ha): 70
Herbicidal activity on a 0-100 scale, SORVU (Sorghum bicolour (SORVU); 125 g/Ha): 70
Herbicidal activity on a 0-100 scale, SORVU (Sorghum bicolour (SORVU); 250 g/Ha): 80
Herbicidal activity on a 0-100 scale, SORVU (Sorghum bicolour (SORVU); 500 g/Ha): 90
Herbicidal activity TRZAW ([6]; 15 g/Ha): 0
Herbicidal activity TRZAW ([6]; 30 g/Ha): 10
Herbicidal activity TRZAW ([6]; 60 g/Ha): 20
Herbicidal activity TRZAW ([6]; 125 g/Ha): 20
Herbicidal activity TRZAW ([6]; 250 g/Ha): 50
Herbicidal activity TRZAW ([6]; 500 g/Ha): 80
Herbicidal activity XANST ([7]; 60 g/Ha): 90
Herbicidal activity XANST ([7]; 125 g/Ha): 90
Herbicidal activity XANST ([7]; 250 g/Ha): 90
Herbicidal activity XANST ([7]; 500 g/Ha): 100
